Test results as given in US20240018102A1, “COMPOUNDS AND COMPOSITIONS FOR TREATING CONDITIONS ASSOCIATED WITH LPA RECEPTOR ACTIVITY” (Lhotse Bio, Inc., priority 2020, published 2024).

Target: T1, human LPA1 (Homo sapiens, UniProt Q92633)
T1 construct: expressed in transfected cells; host or cells: CHO-K1
Test: In vitro LPA1 calcium flux antagonist assay, Bioduro protocol
Assay type: cell-based
Settings: CHO-K1 cells overexpressing human LPA1 and G15a; LPA challenge at EC80; calcium mobilization on FLIPR Tetra; read-out: IC50 (nM) in Assay B2
Experimental: In Vitro LPA1 Calcium Flux Antagonist Assay Bioduro Protocol
CHO-K1 cells overexpressing human LPA1 and G15a were seeded at a total volume of 20 uL (15000 cells/well) into Matrigel pre-coated 384-well plates (coming -3764) and incubated at 37° C. After overnight incubation, the cells were serum starved for 4 h. Assays were performed in dye loading buffer containing 1× Fluo-8 AM (AAT Bioquest, 21080) and 2.5 mM probenecid (Thermo Fisher, 36400) in HBSS/20 mM Hepes. After cell starvation, the medium was replaced with 20 uL of dye loading buffer and incubated at 37° C. for 30 min. Then 5 uL of 5× compound titrated in dye loading buffer was added to the cells and incubated for 30 min followed by LPA challenge at EC80. Calcium mobilization was measured on a FLIPR Tetra (MDS). For LPA EC80 determination, starved cells were incubated with 20 uL of dye loading buffer for 1 h, then 5 uL of 5×LPA titrated in dye loading buffer was added to the cells. Calcium signals induced by LPA was monitors on a FLIPR.
Percentage inhibition is calculated using the following formula:
% Inhibition=100%×(1−(mean RFU of test sample−mean RFU of DMSO)/(mean RFU of LPA control−mean RFU of DMSO)).

T1 sequence (Q92633 whole entry): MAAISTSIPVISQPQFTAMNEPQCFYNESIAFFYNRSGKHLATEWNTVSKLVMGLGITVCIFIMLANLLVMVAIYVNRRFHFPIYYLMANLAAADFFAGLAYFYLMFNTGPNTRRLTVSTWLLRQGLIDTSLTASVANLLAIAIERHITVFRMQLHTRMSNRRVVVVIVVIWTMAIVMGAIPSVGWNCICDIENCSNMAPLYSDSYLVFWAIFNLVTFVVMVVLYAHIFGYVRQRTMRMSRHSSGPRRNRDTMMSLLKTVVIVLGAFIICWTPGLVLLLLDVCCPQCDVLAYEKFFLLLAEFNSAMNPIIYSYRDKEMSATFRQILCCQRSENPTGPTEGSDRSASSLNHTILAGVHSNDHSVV

SMILES	IC50
COc1cc([C@@H](O)[C@H](Cn2nnc3cccc(C(=O)O)c32)OC2CCCC2)cc(OC)c1C (racemic) [Compound 209]	812 nM
COc1cc([C@@H](O)[C@H](Cc2nc([C@H](C)C(=O)O)c(C)s2)OC2CCCC2)cc(OC)c1C (single isomer, unassigned) [Compound 239]	37.4 nM
COc1cc([C@@H](O)[C@H](Cc2nc([C@@H](C)C(=O)O)c(C)s2)OC2CCCC2)cc(OC)c1C (single isomer, unassigned) [Compound 240]	885 nM
COc1cc([C@@H](O)[C@H](Cn2cc3cccc(C(=O)O)c3n2)OCC(C)C)cc(OC)c1C [Compound 146]	36.8 nM
COc1cc([C@@H](O)[C@H](Cn2cc3cccc(C(=O)O)c3n2)OC2CCCC2)cc(OC)c1OC [Compound 147]	126 nM
COc1cc([C@@H](O)[C@H](Cn2cc3cccc(C(=O)O)c3n2)OC2CCCCC2)ccc1C(F)F [Compound 148]	525 nM
COc1cc([C@@H](O)[C@H](Cn2cc3cccc(C(=O)O)c3n2)OC2CCC(F)(F)CC2)cc(OC)c1C [Compound 149]	299 nM
Cc1ccc([C@@H](O)[C@H](Cn2cc3cccc(C(=O)O)c3n2)OC2CCCC2)cc1OC(F)(F)F [Compound 150]	146 nM
Cc1ccc([C@@H](O)[C@H](Cn2cc3cccc(C(=O)O)c3n2)OC2CCCC2)cc1O [Compound 151]	≥ 10000 nM
COC(=O)c1sc(C[C@H](OC2CCCC2)[C@H](O)c2cc(OC)c(C)c(OC)c2)nc1CC(=O)O [Compound 152]	8.53 nM
COc1cc([C@@H](O)[C@H](Cc2cn3nccc(C(=O)O)c3n2)OC2CCCC2)cc(OC)c1C [Compound 156]	301 nM
COc1cc([C@@H](O)[C@H](Cc2nc3c(C(=O)O)cccc3s2)OC2CCCC2)cc(OC)c1C [Compound 157, 2-((2S,3R)-2-(cyclopentyloxy)-3-(3,5-dimethoxy-4-methylphenyl)-3-hydroxypropyl)benzo[d]thiazole-4-carboxylic acid]	6.3 nM
COc1cc([C@@H](O)[C@H](Cc2nc3cccc(C(=O)O)n3n2)OC2CCCC2)cc(OC)c1C [Compound 167]	> 10000 nM
COc1cc([C@@H](O)[C@H](Cc2nc3c(C(=O)O)cccn3n2)OC2CCCC2)cc(OC)c1C [Compound 168]	> 10000 nM
COc1cc([C@@H](O)[C@H](Cc2cc3cccc(C(=O)O)n3n2)OC2CCCC2)cc(OC)c1C [Compound 169, 2-((2S,3R)-2-(cyclopentyloxy)-3-(3,5-dimethoxy-4-methylphenyl)-3-hydroxypropyl)pyrazolo[1,5-a]pyridine-7-carboxylic acid]	150 nM
COc1cc([C@@H](O)[C@H](Cn2cc3cccc(C(=O)NS(C)(=O)=O)c3n2)OC2CCCC2)cc(OC)c1C [Compound 171]	≥ 10000 nM
COc1cc([C@@H](O)[C@H](Cn2cc3cc(Cl)cc(C(=O)O)c3n2)OC2CCCC2)ccc1C(F)F [Compound 173]	6.09 nM
COc1cc([C@@H](O)[C@H](Cc2nc3c(C(=O)O)cccc3n2C)OC2CCCC2)cc(OC)c1C [Compound 175]	> 10000 nM
COc1cc([C@@H](O)[C@H](Cc2nc3c(C(=O)O)cncc3s2)OC2CCCC2)cc(OC)c1C [Compound 176]	9.95 nM
COc1cc([C@@H](O)[C@H](Cc2nc(CC(=O)O)c(C)s2)OC2CCCC2)cc(OC)c1C [Compound 177, 2-(2-((2S,3R)-2-(cyclopentyloxy)-3-(3,5-dimethoxy-4-methylphenyl)-3-hydroxypropyl)-5-methylthiazol-4-yl)acetic acid]	154 nM
CCc1sc(C[C@H](OC2CCCC2)[C@H](O)c2cc(OC)c(C)c(OC)c2)nc1CC(=O)O [Compound 178]	73.8 nM
CCCc1sc(C[C@H](OC2CCCC2)[C@H](O)c2cc(OC)c(C)c(OC)c2)nc1CC(=O)O [Compound 179]	20.3 nM
COc1cc([C@@H](O)[C@H](Cn2cc3cccc(-c4nc(=O)o[nH]4)c3n2)OC2CCCC2)cc(OC)c1C [Compound 181]	> 10000 nM
COc1cc([C@@H](O)[C@H](Cn2cc3cccc(C#N)c3n2)OC2CCCC2)cc(OC)c1C [Compound 183]	> 10000 nM
COc1cc([C@@H](O)[C@H](Cn2cc3nccc(C(=O)O)c3n2)OCCc2ccccc2)cc(OC)c1C [Compound 184]	24 nM
COc1cc([C@@H](O)[C@H](Cn2cc3nccc(C(=O)O)c3n2)OC2Cc3ccccc3C2)cc(OC)c1C [Compound 185]	15 nM
COc1cc([C@@H](O)[C@H](Cn2cc3nccc(C(=O)O)c3n2)OCCc2ccc(F)cc2)cc(OC)c1C [Compound 187]	132 nM

The next lines start with the values.

IC50	SMILES
5.42 nM	COc1cc([C@@H](O)[C@H](Cn2cc3c(F)ccc(C(=O)O)c3n2)OC2CCCC2)cc(OC)c1C [Compound 153]
8.64 nM	COc1cc([C@@H](O)[C@H](Cn2cc3cc(F)cc(C(=O)O)c3n2)OC2CCCC2)cc(OC)c1C [Compound 154]
308 nM	COc1cc([C@@H](O)[C@H](Cn2cc3ccc(F)c(C(=O)O)c3n2)OC2CCCC2)cc(OC)c1C [Compound 155]
55.8 nM	COc1cc([C@@H](O)[C@H](Cn2cc3ccnc(C(=O)O)c3n2)OC2CCCC2)cc(OC)c1C [Compound 158]
49.6 nM	COc1cc([C@@H](O)[C@H](Cn2cc3cncc(C(=O)O)c3n2)OC2CCCC2)cc(OC)c1C [Compound 159]
138 nM	COc1cc([C@@H](O)[C@H](Cn2cc3nccc(C(=O)O)c3n2)OC2CCCC2)cc(OC)c1C [Compound 160, 2-((2S,3R)-2-(cyclopentyloxy)-3-(3,5-dimethoxy-4-methylphenyl)-3-hydroxypropyl)-2H-pyrazolo[4,3-b]pyridine-7-carboxylic acid]
6.28 nM	COc1cc([C@@H](O)[C@H](Cn2cc3cc(C)cc(C(=O)O)c3n2)OC2CCCC2)cc(OC)c1C [Compound 161]
3.93 nM	COc1cc([C@@H](O)[C@H](Cn2cc3cc(C(F)F)cc(C(=O)O)c3n2)OC2CCCC2)cc(OC)c1C [Compound 162]
4.23 nM	COc1cc([C@@H](O)[C@H](Cn2cc3cc(C(F)(F)F)cc(C(=O)O)c3n2)OC2CCCC2)cc(OC)c1C [Compound 163]
11.9 nM	COc1cc(C(=O)O)c2nn(C[C@H](OC3CCCC3)[C@H](O)c3cc(OC)c(C)c(OC)c3)cc2c1 [Compound 164]
6.28 nM	COc1cc([C@@H](O)[C@H](Cn2cc3cc(C#N)cc(C(=O)O)c3n2)OC2CCCC2)cc(OC)c1C [Compound 165]
4.94 nM	COc1cc([C@@H](O)[C@H](Cn2cc3cc(C4CC4)cc(C(=O)O)c3n2)OC2CCCC2)cc(OC)c1C [Compound 166]
> 10000 nM	COc1cc([C@@H](O)[C@H](Cn2nc3cccc(C(=O)O)c3n2)OC2CCCC2)cc(OC)c1C [Compound 170]
4.01 nM	CCc1cc(C(=O)O)c2nn(C[C@H](OC3CCCC3)[C@H](O)c3cc(OC)c(C)c(OC)c3)cc2c1 [Compound 172]
103 nM	COc1cc([C@@H](O)[C@H](Cn2cc3c(=O)n(C)cc(C(=O)O)c3n2)OC2CCCC2)cc(OC)c1C [Compound 174]
153 nM	COc1cc([C@@H](O)[C@H](Cn2cc3ccc(C#N)c(C(=O)O)c3n2)OC2CCCC2)cc(OC)c1C [Compound 180]
79.2 nM	COc1cc([C@@H](O)[C@H](Cn2cc3c(C#N)ccc(C(=O)O)c3n2)OC2CCCC2)cc(OC)c1C [Compound 182]
7640 nM	COc1cc([C@@H](O)[C@H](Cn2cc3c(C(F)(F)F)ccc(C(=O)O)c3n2)OC2CCCC2)cc(OC)c1C [Compound 186]
